Where “and” joins values, the source holds several entries; their conditions need not be identical. Equal entries are not always repeated.
Legend:
[1] = system: endometriosis lesion; experiment: First study: in-vivo model of endometriosis, tissue from K-rasV12/Ah-Cre/ROSA26R-LacZ donor mice in wild-type animals; settings: four treated animals, injected for 21 days
Method: In a first study, a total of 4 treatment and 5 control animals were generated in a novel in-vivo model of endometriosis (Research Horizons, University of Cambridge, 2009 Issue 8, GB 0715635.9) K-rasV12/Ah-Cre transgenic mice were crossed with Rosa26R mice to generate KrasV12+/−/Ah-Cre+/−/ROSA26R-LacZ+/− transgenic mice. The F1 offspring were inbred to generate F2 K-rasV12+/−/Ah-Cre+/+/ROSA26R-LacZ+/+ transgenic mice. The presence of the transgenes was determined by PCR using gene specific primers for K-ras, Cre and Rosa26R-LacZ. Tissue was collected from donor animals previously treated with hormones etc. and was divided between wild-type animals that were then injected with drug or vehicle for 21 days.

[2] = system: endometriosis lesions (plugs of uterine tissue); experiment: Dose ranging prevention study, transplanted plugs of uterine tissue; assay type: in vivo, C57BL6 mice; settings: for Lesion burden Ave / Lesion growth Ave: average per mouse; for Lesion burden Mean / Lesion establishment Mean / Lesion growth Mean: group mean; for Lesion burden P1 / Lesion burden P2 / Lesion burden P3 / Lesion burden P4 / Lesion burden P5 / Lesion burden P6 / Lesion growth M1 / Lesion growth M2 / Lesion growth P1 / Lesion growth P2 / Lesion growth P3 / Lesion growth P4 / Lesion establishment M1 / Lesion establishment M2 / Lesion establishment P1 / Lesion establishment P2 / Lesion establishment P3 / Lesion establishment P4: individual mouse; for Lesion establishment M1 / Lesion establishment M2 / Lesion establishment P1 / Lesion establishment P2 / Lesion establishment P3 / Lesion establishment P4: 1 or 0; for Lesion establishment Ave: per mouse
[3] = mouse, in vivo
Method: 8-10 week old, female nulliparous C57BL6 mice were acclimatised for 1 week. A group of 10 female animals were dosed with 10 ng of peptide injected subcutaneously 3 days prior to experimentation with a control group of 10 animals treated with vehicle alone.
5 male C57BL6 animals were introduced and the females checked daily for mucous plug (before 9 a.m.). When mucous plug was recorded the females were evaluated for:
a) Length of possible pregnancy (days)
c) Anomalies in offspring

[4] = mouse, in vivo; remark: listed apart in the source
Description: Offspring from dosed females were mated and checked for fertility to determine possible inheritable effects.

## Ac-PPPHPHARIK-NH2 [ValiRx1, Ac-Pro-Pro-Pro-His-Pro-His-Ala-Arg-Ile-Lys-NH2]
[1]
  absence of lesion following treatment: three showed complete absence of lesion
[2]; 1 ng, 10 ng or 100 ng s.c. daily
  lesion growth following treatment vs control group: significantly reduced
[2]; 1 ng/mouse s.c. daily
  Lesion burden Ave: 1.1 mm^2 and 1.9 mm^2 and 12.1 mm^2 and 6.5 mm^2 and 8.5 mm^2
  Lesion growth Ave: 6.5 mm^2 and 8.5 mm^2 and 1.3 mm^2 and 1.9 mm^2 and 12.1 mm^2
  Lesion burden Mean: 6.02 mm^2
  Lesion establishment Mean: 96.67%
  Lesion growth Mean: 6.23 mm^2
  Lesion burden P1: 1.8 mm^2 and 1.1 mm^2 and 4.2 mm^2 and 15.1 mm^2 and 10.2 mm^2
  Lesion burden P2: 0.2 mm^2 and 3.1 mm^2 and 16.7 mm^2 and 5.7 mm^2 and 10.6 mm^2
  Lesion burden P3: 0.1 mm^2 and 2.5 mm^2 and 15.2 mm^2 and 8.0 mm^2 and 16.6 mm^2
  Lesion burden P4: 0.0 mm^2 and 0.2 mm^2 and 17.0 mm^2 and 3.8 mm^2 (2×)
  Lesion burden P5: 3.5 mm^2 and 1.1 mm^2 and 11.2 mm^2 and 0.2 mm^2 and 0.5 mm^2
  Lesion burden P6: 1.1 mm^2 and 3.5 mm^2 and 8.0 mm^2 and 6.2 mm^2 and 9.4 mm^2
  Lesion growth M1: 0.196 mm^2 and 0.503 mm^2 and 3.456 mm^2 and 1.131 mm^2 and 11.2 mm^2
  Lesion growth M2: 6.158 mm^2 and 9.425 mm^2 and 1.131 mm^2 and 3.464 mm^2 and 8.042 mm^2
  Lesion growth P1: 1.131 mm^2 and 4.155 mm^2 and 15.1 mm^2 and 10.18 mm^2 and 1.767 mm^2
  Lesion growth P2: 3.142 mm^2 and 16.74 mm^2 and 5.694 mm^2 and 10.56 mm^2 and 0.196 mm^2
  Lesion growth P3: 2.545 mm^2 and 15.21 mm^2 and 8.042 mm^2 and 16.62 mm^2 and 0.126 mm^2
  Lesion growth P4: 3.801 mm^2 (2×) and 0.196 mm^2 and 16.96 mm^2
  Lesion establishment M1: 1
  Lesion establishment M2: 1
  Lesion establishment P1: 1
  Lesion establishment P2: 1
  Lesion establishment P3: 1
  Lesion establishment P4: 1 (4×) and 0
  Lesion establishment Ave: 100% (4×) and 83.33%
[2]; 10 ng/mouse s.c. daily
  Lesion burden Ave: 2.9 mm^2 and 6.7 mm^2 and 11.3 mm^2 and 3.3 mm^2 and 3.5 mm^2
  Lesion growth Ave: 2.9 mm^2 and 6.7 mm^2 and 11.3 mm^2 and 3.3 mm^2 and 4.2 mm^2
  Lesion burden Mean: 5.53 mm^2
  Lesion establishment Mean: 96.67%
  Lesion growth Mean: 5.72 mm^2
  Lesion burden P1: 1.0 mm^2 and 7.3 mm^2 and 12.6 mm^2 and 3.1 mm^2 and 1.1 mm^2
  Lesion burden P2: 3.5 mm^2 (2×) and 10.0 mm^2 and 7.0 mm^2 and 2.5 mm^2
  Lesion burden P3: 10.9 mm^2 and 4.5 mm^2 and 9.6 mm^2 and 3.5 mm^2 (2×)
  Lesion burden P4: 1.0 mm^2 and 6.7 mm^2 and 5.4 mm^2 and 3.0 mm^2 and 0.0 mm^2
  Lesion burden P5: 1.0 mm^2 and 7.1 mm^2 and 21.1 mm^2 and 3.5 mm^2 and 4.0 mm^2
  Lesion burden P6: 0.2 mm^2 and 4.5 mm^2 and 12.1 mm^2 and 3.1 mm^2 and 9.7 mm^2
  Lesion growth M1: 0.95 mm^2 and 7.069 mm^2 and 21.11 mm^2 and 3.464 mm^2 and 3.958 mm^2
  Lesion growth M2: 0.196 mm^2 and 4.524 mm^2 and 12.06 mm^2 and 3.142 mm^2 and 9.66 mm^2
  Lesion growth P1: 0.95 mm^2 and 7.288 mm^2 and 12.57 mm^2 and 3.142 mm^2 and 1.131 mm^2
  Lesion growth P2: 3.464 mm^2 (2×) and 10.02 mm^2 and 7.037 mm^2 and 2.545 mm^2
  Lesion growth P3: 10.95 mm^2 and 4.524 mm^2 and 9.621 mm^2 and 3.464 mm^2 (2×)
  Lesion growth P4: 0.95 mm^2 and 6.739 mm^2 and 5.372 mm^2 and 2.969 mm^2
  Lesion establishment M1: 1
  Lesion establishment M2: 1
  Lesion establishment P1: 1
  Lesion establishment P2: 1
  Lesion establishment P3: 1
  Lesion establishment P4: 1 (4×) and 0
  Lesion establishment Ave: 100% (4×) and 83.33%
[2]; 100 ng/mouse s.c. daily
  Lesion burden Ave: 11.8 mm^2 and 1.8 mm^2 and 3.2 mm^2 and 3.0 mm^2 and 2.9 mm^2
  Lesion growth Ave: 11.8 mm^2 and 1.8 mm^2 and 3.2 mm^2 and 3.0 mm^2 and 2.9 mm^2
  Lesion burden Mean: 4.52 mm^2
  Lesion establishment Mean: 100.00%
  Lesion growth Mean: 4.52 mm^2
  Lesion burden P1: 7.0 mm^2 and 4.5 mm^2 and 2.8 mm^2 and 2.0 mm^2 and 1.5 mm^2
  Lesion burden P2: 18.5 mm^2 and 2.8 mm^2 and 2.3 mm^2 and 3.1 mm^2 and 3.5 mm^2
  Lesion burden P3: 11.0 mm^2 and 2.3 mm^2 (2×) and 3.5 mm^2 and 4.9 mm^2
  Lesion burden P4: 8.4 mm^2 and 0.2 mm^2 and 3.8 mm^2 and 2.5 mm^2 and 1.8 mm^2
  Lesion burden P5: 12.6 mm^2 and 1.0 mm^2 and 7.5 mm^2 and 3.8 mm^2 and 2.0 mm^2
  Lesion burden P6: 13.2 mm^2 and 0.3 mm^2 (2×) and 2.8 mm^2 and 3.5 mm^2
  Lesion growth M1: 12.57 mm^2 and 0.95 mm^2 and 7.548 mm^2 and 3.801 mm^2 and 2.011 mm^2
  Lesion growth M2: 13.2 mm^2 and 0.283 mm^2 (2×) and 2.835 mm^2 and 3.464 mm^2
  Lesion growth P1: 7.037 mm^2 and 4.453 mm^2 and 2.827 mm^2 and 2.011 mm^2 and 1.539 mm^2
  Lesion growth P2: 18.47 mm^2 and 2.827 mm^2 and 2.27 mm^2 and 3.142 mm^2 and 3.464 mm^2
  Lesion growth P3: 11 mm^2 and 2.27 mm^2 (2×) and 3.464 mm^2 and 4.909 mm^2
  Lesion growth P4: 8.357 mm^2 and 0.196 mm^2 and 3.801 mm^2 and 2.545 mm^2 and 1.767 mm^2
  Lesion establishment M1: 1
  Lesion establishment M2: 1
  Lesion establishment P1: 1
  Lesion establishment P2: 1
  Lesion establishment P3: 1
  Lesion establishment P4: 1
  Lesion establishment Ave: 100%
[2]; range over groups of the model
  lesion establishment: 97.67%-100%
[3]
  fertility of mice: does not affect their fertility
[4]
  fertility of offspring from dosed females: no abnormalities noted

— US10023612B2, “Method of treating endometriosis” (ValiRx PLC, priority 2011, dated 2018)
